Values of other authors as cited in PubChem BioAssay AID1259409 (Chemical Carcinogenesis Research Information System (CCRIS), 2018).

Tested on: rodent chemically induced tumor inhibition, incidence and multiplicity
Assay: CCRIS tumor inhibitor studies

## O=c1c(O)c(-c2cc(O)c(O)c(O)c2)oc2cc(O)ccc12
Carcinogen: (+/-)-7BETA,8ALPHA-DIHYDROXY-9ALPHA,10ALPHA-EPOXY-7,8,9,10-TETRAHYDROBENZO[A]PYR ENE, 58917-67-2, Dose [Inhibitor]: 0, 1400 NMOL (TOTAL DOSE) 10 MIN PRIOR TO CARCINOGEN DOSE INJECTED AS 1/7, 2/7,AND 4/7 OF THE TOTAL ON DAYS 1, 8, AND 15, Route [Inhibitor]: INTRAPERITONEAL, Species: MOUSE, Strain/Sex: ICR/MALE,FEMALE, Target Tissue: Type of Lesion: LUNG: TUMOR, Dose [Carcinogen]: 30 NMOL (TOTAL DOSE) INJECTED IN DOSES OF 1/7, 2/7, AND 4/7 ON DAYS 1,8, AND 15 OF LIFE, RESPECTIVELY, Promoter: NONE USED
  tumour outcome (control, treated, inhibition, significance): 93%, 50%, 46%, p<0.05
Carcinogen: (+/-)-7BETA,8ALPHA-DIHYDROXY-9ALPHA,10ALPHA-EPOXY-7,8,9,10-TETRAHYDROBENZO[A]PYR ENE, 58917-67-2, Dose [Inhibitor]: 0, 1400 NMOL (TOTAL DOSE) APPLIED 10 MIN PRIOR TO CARCINOGEN DOSE INJECTED AS 1/7, 2/7, AND 4/7 OF THE TOTAL ON DAYS 1,, Route [Inhibitor]: INTRAPERITONEAL, Species: MOUSE, Strain/Sex: ICR/MALE,FEMALE, Target Tissue: Type of Lesion: LUNG: TUMOR, Dose [Carcinogen]: 15 NMOL (TOTAL DOSE) INJECTED IN DOSES OF 1/7, 2/7, AND 4/7 ON DAYS 1, 8, AND 15 OF LIFE, RESPECTIVELY, Promoter: NONE USED
  tumour outcome (control, treated, inhibition, significance): 63%, 41%, 35%, p<0.05
Carcinogen: (+/-)-7BETA,8ALPHA-DIHYDROXY-9ALPHA,10ALPHA-EPOXY-7,8,9,10-TETRAHYDROBENZO[A]PYR ENE, 58917-67-2, Dose [Inhibitor]: 0, 2500 NMOL IN 200 µL ACETONE:DMSO (90:10) ONCE APPLIED 5 MIN PRIOR TO CARCINOGEN DOSE (STUDY DURATION: 21 WK), Route [Inhibitor]: DERMAL, Species: MOUSE, Strain/Sex: CD-1/FEMALE, Target Tissue: Type of Lesion: SKIN: TUMOR, Dose [Carcinogen]: 200 NMOL IN ACETONE:DMSO (90:10) ONCE, Promoter: 12-O-TETRADECANOYLPHORBOL-13-ACETATE, 16561-29-8
  tumour outcome (control, treated, inhibition, significance): 59%, 68%, -15%, not significant
Carcinogen: BENZO[A]PYRENE, 50-32-8, Dose [Inhibitor]: 0, 1400 NMOL (TOTAL DOSE) APPLIED 10 MIN PRIOR TO CARCINOGEN DOSE INJECTED AS 1/7, 2/7, AND 4/7 OF THE TOTAL ON DAYS 1,, Route [Inhibitor]: INTRAPERITONEAL, Species: MOUSE, Strain/Sex: ICR/MALE,FEMALE, Target Tissue: Type of Lesion: LUNG: TUMOR, Dose [Carcinogen]: 450 NMOL (TOTAL DOSE) INJECTED IN DOSES OF 1/7, 2/7, AND 4/7 ON DAYS 1, 8, AND 15 OF LIFE, RESPECTIVELY, Promoter: NONE USED
  tumour outcome (control, treated, inhibition, significance): 73%, 79%, -8%, not significant
Carcinogen: BENZO[A]PYRENE, 50-32-8, Dose [Inhibitor]: 0, 2500 NMOL IN 200 µL ACETONE:DMSO (90:10) ONCE APPLIED 5 MIN PRIOR TO CARCINOGEN DOSE (STUDY DURATION: 21 WK), Route [Inhibitor]: DERMAL, Species: MOUSE, Strain/Sex: CD-1/FEMALE, Target Tissue: Type of Lesion: SKIN: TUMOR, Dose [Carcinogen]: 50 NMOL IN ACETONE:DMSO (90:10) ONCE, Promoter: 12-O-TETRADECANOYLPHORBOL-13-ACETATE, 16561-29-8
  tumour outcome (control, treated, inhibition, significance): 50%, 54%, -8%, not significant

## CC1=C(/C=C/C(C)=C/C=C/C(C)=C\C(=O)Nc2nn[nH]n2)C(C)(C)CCC1
Carcinogen: N-BUTYL-N-(4-HYDROXYBUTYL)NITROSAMINE, 3817-11-6, Dose [Inhibitor]: 1.5 MMOL/KG DIET DAILY FOR 159 D STARTING 1 WK AFTER THE FINAL CARCINOGEN DOSE (STUDY DURATION: 216 D), Route [Inhibitor]: ORAL, Species: MOUSE, Strain/Sex: BDF/MALE, Target Tissue: Type of Lesion: URINARY BLADDER: TRANSITIONAL CELL CARCINOMA, Dose [Carcinogen]: 7.5 MG 1/WK FOR 8 WK, Promoter: NONE USED
  tumour outcome (control, treated, inhibition, significance): 29/98 (30%), 26/100 (26%), 13%, not significant
Carcinogen: N-BUTYL-N-(4-HYDROXYBUTYL)NITROSAMINE, 3817-11-6, Dose [Inhibitor]: 1.5 MMOL/KG/D IN DIET FOR 159 D STARTING 1 WK POST CARCINOGEN TREATMENT (STUDY DURATION: 216 D), Route [Inhibitor]: ORAL, Species: MOUSE, Strain/Sex: BDF/MALE, Target Tissue: Type of Lesion: URINARY BLADDER: TRANSITIONAL CELL CARCINOMA, Dose [Carcinogen]: 7.5 MG 1/WK FOR 8 WK, Promoter: NONE USED
  tumour outcome (control, treated, inhibition, significance): 29/98 (30%), 26/100 (26%), 13%, not significant

## CC(C)=CCC/C(C)=C/CC/C(C)=C/CCC1(C)CCc2cc(O)ccc2O1 (configuration not stated)
Carcinogen: 7,12-DIMETHYLBENZ[A]ANTHRACENE, 57-97-6, Dose [Inhibitor]: 0, 3.381 UMOL/G IN DIET FOR DURATION OF STUDY (STUDY DURATION: 18 WK), Route [Inhibitor]: ORAL, Species: RAT, Strain/Sex: SPRAGUE-DAWLEY/FEMALE, Target Tissue: Type of Lesion: MAMMARY GLAND: TUMOR, Dose [Carcinogen]: 50 MG/KG IN SESAME OIL ONCE, Promoter: NONE USED
  tumour outcome (control, treated, inhibition, significance): 88%, 72%, 18%, not significant
Carcinogen: N-METHYL-N-NITROSOUREA, 684-93-5, Dose [Inhibitor]: 0, 3.381 UMOL/G IN DIET FOR DURATION OF STUDY (STUDY DURATION: 19 WK), Route [Inhibitor]: ORAL, Species: RAT, Strain/Sex: SPRAGUE-DAWLEY/FEMALE, Target Tissue: Type of Lesion: MAMMARY GLAND: TUMOR, Dose [Carcinogen]: 30 MG/KG IN ACIDIFIED SALINE ONCE, Promoter: NONE USED
  tumour outcome (control, treated, inhibition, significance): 60%, 76%, -27%, not significant

## O=c1[nH]c(=O)n([C@H]2C[C@H](O)[C@@H](CO)O2)cc1Br
Carcinogen: DIETHYLNITROSAMINE, 55-18-5, Dose [Inhibitor]: 0, 100 MG/KG INJECTED 4, 24, AND 48 HR AFTER EACH CARCINOGEN EXPOSURE (STUDY DURATION: 6 MO), Route [Inhibitor]: INTRAPERITONEAL, Species: RAT, Strain/Sex: BD6/MALE, Target Tissue: Type of Lesion: ESOPHAGUS: TUMOR, Dose [Carcinogen]: 80 MG/KG 1 WK FOR 7 WK
  tumour outcome (control, treated, inhibition, significance): 10/40 (25%), 11/35 (31%), -24%, not calculated
Carcinogen: DIETHYLNITROSAMINE, 55-18-5, Dose [Inhibitor]: 0, 100 MG/KG INJECTED 4, 24, AND 48 HR AFTER EACH CARCINOGEN EXPOSURE (STUDY DURATION: 6 MO), Route [Inhibitor]: INTRAPERITONEAL, Species: RAT, Strain/Sex: BD6/MALE, Target Tissue: Type of Lesion: LIVER: TUMOR, Dose [Carcinogen]: 80 MG/KG 1/WK FOR 7 WK
  tumour outcome (control, treated, inhibition, significance): 29/40 (73%), 20/35 (57%), 22%, not calculated

## CC(C)CC(CN[C@@H](CC(C)C)C(N)=O)NC(=O)[C@H](Cc1cnc[nH]1)NC(=O)CNC(=O)[C@@H](NC(=O)C(C)NC(=O)[C@H](Cc1c[nH]c2ccccc12)NC(=O)[C@H](CCC(N)=O)NC(=O)[C@H]1Cc2c([nH]c3ccccc23)CN1)C(C)C (some centres not stated)
Carcinogen: N-NITROSOBIS(2-OXOPROPYL)AMINE, 60599-38-4, Dose [Inhibitor]: 0, 5 UG/D FROM OSMOTIC PUMP FOR 2 MO, Route [Inhibitor]: SUBCUTANEOUS IMPLANT, Species: HAMSTER, Strain/Sex: SYRIAN/FEMALE, Target Tissue: Type of Lesion: PANCREAS: ADENOCARCINOMA
  tumour outcome (control, treated, inhibition, significance): 10/11 (91%), 7/11 (64%), 30%, not calculated
Carcinogen: N-NITROSOBIS(2-OXOPROPYL)AMINE, 60599-38-4, Dose [Inhibitor]: 0, 20 UG/D BEGINNING 18 WK POST CARCINOGEN TREATMENT AND CONTINUING FOR 8 WK (STUDY DURATION: 32 WK), Route [Inhibitor]: SUBCUTANEOUS, Species: HAMSTER, Strain/Sex: SYRIAN/FEMALE, Target Tissue: Type of Lesion: PANCREAS: ADENOCARCINOMA, Dose [Carcinogen]: TREATMENT FOR 6 WK (DOSE NOT STATED), Promoter: NONE USED
  tumour outcome (control, treated, inhibition, significance): 12/12 (100%), 9/12 (75%), 25%, not significant
Carcinogen: N-NITROSOBIS(2-OXOPROPYL)AMINE, 60599-38-4, Dose [Inhibitor]: 0, 20 UG/D FROM OSMOTIC PUMP FOR 2 MO, Route [Inhibitor]: SUBCUTANEOUS IMPLANT, Species: HAMSTER, Strain/Sex: SYRIAN/FEMALE, Target Tissue: Type of Lesion: PANCREAS: ADENOCARCINOMA, Promoter: NONE USED
  tumour outcome (control, treated, inhibition, significance): 12/12 (100%), 6/12 (50%), 50%, not calculated
Carcinogen: N-NITROSOBIS(2-OXOPROPYL)AMINE, 60599-38-4, Dose [Inhibitor]: 0, 30 UG/D BEGINNING 18 WK POST CARCINOGEN TREATMENT AND CONTINUING FOR 8 WK (STUDY DURATION: 32 WK), Route [Inhibitor]: SUBCUTANEOUS, Species: HAMSTER, Strain/Sex: SYRIAN/FEMALE, Target Tissue: Type of Lesion: PANCREAS: ADENOCARCINOMA, Dose [Carcinogen]: TREATMENT FOR 6 WK (DOSE NOT STATED), Promoter: NONE USED
  tumour outcome (control, treated, inhibition, significance): 11/12 (92%), 8/12 (67%), 27%, not significant
Carcinogen: N-NITROSOBIS(2-OXOPROPYL)AMINE, 60599-38-4, Dose [Inhibitor]: 0, 30 UG/D FOR 2 MO, Route [Inhibitor]: SUBCUTANEOUS, Species: HAMSTER, Strain/Sex: SYRIAN/FEMALE, Target Tissue: Type of Lesion: PANCREAS: ADENOCARCINOMA
  tumour outcome (control, treated, inhibition, significance): 11/13 (85%), 12/13 (92%), -8%, not calculated
Carcinogen: N-NITROSOBIS(2-OXOPROPYL)AMINE, 60599-38-4, Dose [Inhibitor]: 0, 60 UG/D BEGINNING 18 WK POST CARCINOGEN TREATMENT AND CONTINUING FOR 8 WK (STUDY DURATION: 32 WK), Route [Inhibitor]: SUBCUTANEOUS, Species: HAMSTER, Strain/Sex: SYRIAN/FEMALE, Target Tissue: Type of Lesion: PANCREAS: ADENOCARCINOMA, Dose [Carcinogen]: TREATMENT FOR 6 WK (DOSE NOT STATED), Promoter: NONE USED
  tumour outcome (control, treated, inhibition, significance): 12/12 (100%), 2/12 (17%), 83%, p<0.01
